Assays:
[1] = Apparent permeability from basolateral to apical side in human Caco2 cells at 2 uM after 2 hrs by LC-MS/MS analysis; assay type: ADME, cell-based; settings: caco-2, 2 h
[2] = Apparent permeability from apical to basolateral side in human Caco2 cells at 2 uM after 2 hrs by LC-MS/MS analysis; assay type: ADME, cell-based; settings: caco-2, 2 h

## OC12CC3CC(C1)CC(NCc1cc(C4CC4)on1)(C3)C2
[1]
  Papp: 28.33 ×10⁻⁶ cm/s
[2]
  Papp: 27.57 ×10⁻⁶ cm/s

— ChEMBL document CHEMBL4024798
